These results are taken from patent US7045520B2, “Opioid receptor active compounds” (The Curators of the University of Missouri, priority 2002, dated 2006).

Data set [1] deals with T1, murine δ opioid receptor (Mus musculus, UniProt P32300).
T1 construct: expressed in transfected cells
The data set is described as follows: biochemical. Type of data set: binding. To be noted: for Receptor Affinity (relative to 100%) δ: single concentration, 20 μM. The protocol:
(§1) Competitive Binding Assays. Human embryonic kidney (HEK) 293 cells (ATCC CRL, 1573) were cultured at 37° C. in Dulbecco's modified Eagle's medium supplemented with 10% fetal bovine serum, 100 units/ml penicillin and 100 μg/ml streptomycin sulfate. HEK293 cells were transfected by electroporation with expression plasmids encoding murine δ or μ opioid receptors tagged at the amino termini with the FLAG-tag epitope or the human κ receptor. Cells stably expressing opioid receptors were selected in media containing 0.75 mg/ml G418 (Life Technologies, Gaithersburg, Md.).
(§2) Cell membrane preparations were collected from the stable transfectants described above. Opioid receptor binding assays were conducted in duplicate on membrane preparations that had been resuspended in 50 mM Tris-HCL, pH 7.5, utilizing [9-^3H]bremazocine (specific activity 2.6 Ci/mmol, NEN, Boston, Mass.) as radioligand and 10 μM cyclazocine to define non-specific binding. Following a one-hour incubation on ice, binding assays were terminated by filtration through Whatman GF/B filters. Filters were soaked in Ecoscint liquid scintillation solution (National Diagnostics, Manville, N.J.) and filter-bound radioactivity was measured using a Packard Tri-Carb 2100 TR liquid scintillation analyzer. Receptor binding data were analyzed by non-linear regression of saturation and competition curves using Prism 3.0 software (GraphPad Software, San Diego, Calif.). Protein concentrations were determined with the Bio-Rad protein microassay (Hercules, Calif.) using bovine serum albumin as standard.
(§3) The binding affinities for compounds listed in Table 1 (4a-c and 5a-c) were determined by competition of [9-^3H]bremazocine binding to membranes prepared from stable cells expressing either the cloned μ, δ, or κ opioid receptors as described in the above sections.
(§4) To determine the selectivity profile of compound 5c toward the cloned opioid receptors, competitive binding assays were performed in the presence of increasing concentrations of compound 5c.
(§5) Preliminary Test for Agonist vs. Antagonist Activity. A simple method to determine whether a compound is acting as an agonist or antagonist at a G-Protein coupled receptor is to perform the competitive binding assay in the presence of 100 mM NaCl. The presence of NaCl in the resuspension buffer will result in about a 4 fold decrease in binding affinity for an opioid receptor agonist, whereas an antagonist will show about a 1 fold increase in receptor affinity.

The subject of data set [2] is murine δ opioid receptor. Put plainly: biochemical. It is filed as binding. Conditions: for Selectivity for δ receptor (δ/κ): ratio of receptor affinities δ to κ; for Selectivity for δ Receptor (δ/μ): ratio of receptor affinities δ to μ. The protocol: as §1, §2, §3, §4, §5
Data set [3] deals with T2, human κ receptor (Homo sapiens, UniProt P41145).
T2 construct: expressed in transfected cells
Put plainly: Competitive binding assay, [9-3H]bremazocine, membranes of stably transfected HEK293 cells. Conditions: for Receptor Affinity (relative to 100%) κ: single concentration, 20 μM; for Ki: average observed, from IC50 by Cheng-Prusoff, read-out: Inhibition Constant, Ki κ. As for the experimental part: as §1, §2, §3, §4, §5

The target of data set [4] is T3, murine μ opioid receptor (Mus musculus, UniProt P42866).
T3 construct: expressed in transfected cells
Described as above. Conditions: for Receptor Affinity (relative to 100%) μ: single concentration, 20 μM; for Ki: average observed, from IC50 by Cheng-Prusoff, read-out: Inhibition Constant, Ki μ. As for the experimental part: as §1, §2, §3, §4, §5

The mark [5] stands for this setting: 100 mM NaCl in resuspension buffer.
[6] abbreviates: Inhibition Constant, Ki δ, average observed, from IC50 by Cheng-Prusoff.

`COc1cccc(-n2cnnc2-c2ccc(C(C)(C)C)cc2)c1` [Compound 4a, 1-{3-[4-(tert-Butyl)phenyl]-(1,2,4-triazol-4-yl)}-3-methoxybenzene] returned a melting point of 118.2 to 118.8 °C. Further, in data set [1], the “Receptor Affinity (relative to 100%) δ” value was 31%. For the same molecule, in data set [2], the “Selectivity for δ receptor (δ/κ)” value worked out at 1.72 and the “Selectivity for δ Receptor (δ/μ)” value is reported as 2.21. Further, the “Receptor Affinity (relative to 100%) κ” value in data set [3] is recorded as 18%. Further, the “Receptor Affinity (relative to 100%) μ” value in data set [4] is 14%.

Molecule `COc1cccc(-n2cnnc2-c2cc(C(C)(C)C)ccc2OC)c1` [Compound 4b, 1-{3-[5-(tert-Butyl)-2-methoxyphenyl](1,2,4-triazol-4-yl)}-3-methoxybenzene] displayed a melting point of 119.5 to 120 °C. Moreover, the “Receptor Affinity (relative to 100%) δ” value in data set [1] is 8%. For the same molecule, in data set [2], the “Selectivity for δ receptor (δ/κ)” value came out at 0.30 and the “Selectivity for δ Receptor (δ/μ)” value amounted to 0.27. In addition, the “Receptor Affinity (relative to 100%) κ” value in data set [3] was 27%. The “Receptor Affinity (relative to 100%) μ” value in data set [4] is 20%.

In turn, `COc1cccc(-n2cnnc2-c2cccc(C(C)(C)C)c2)c1` [Compound 4c, 1-{3-[3-(tert-Butyl)phenyl]-(1,2,4-triazol-4-yl)}-3-methoxybenzene] yielded a melting point of 175 to 175.5 °C. The “Receptor Affinity (relative to 100%) δ” value in data set [1] came out at 2%. For the same molecule, in data set [2], the “Selectivity for δ receptor (δ/κ)” value is 0.07 and the “Selectivity for δ Receptor (δ/μ)” value is given as 0.11. In addition, in data set [3], the “Receptor Affinity (relative to 100%) κ” value is reported as 27%. The “Receptor Affinity (relative to 100%) μ” value in data set [4] was 19%.

Consider `CC(C)(C)c1ccc(-c2nncn2-c2cccc(O)c2)cc1` [Compound 5a, 1-{3-[4-(tert-Butyl)phenyl]-(1,2,4-triazol-4-yl)}-3-phenol], for which the “Receptor Affinity (relative to 100%) δ” value in data set [1] stood at 21%. In addition, in data set [2], the “Selectivity for δ receptor (δ/κ)” value turned out to be 0.44 and the “Selectivity for δ Receptor (δ/μ)” value was determined as 1.17. In data set [3], the “Receptor Affinity (relative to 100%) κ” value came to 48%. For the same molecule, the “Receptor Affinity (relative to 100%) μ” value in data set [4] is recorded as 18%.

Turning to `CC(C)(C)c1ccc(O)c(-c2nncn2-c2cccc(O)c2)c1` [Compound 5b, 1-{3-[5-(tert-Butyl)-2-hydroxyphenyl]-(1,2,4-triazol-4-yl)}-3-phenol], the “Receptor Affinity (relative to 100%) δ” value in data set [1] was about 0%. For the same molecule, in data set [3], the “Receptor Affinity (relative to 100%) κ” value worked out at 20%. Besides, the “Receptor Affinity (relative to 100%) μ” value in data set [4] is recorded as 21%.

In turn, `CC(C)(C)c1cccc(-c2nncn2-c2cccc(O)c2)c1` [Compound 5c, 1-{3-[3-(tert-Butyl)phenyl]-(1,2,4-triazol-4-yl)}-3-phenol] showed a melting point of 242.5 to 243.5 °C. Besides, in data set [1] (setting [5]), the “increase in binding affinity in the presence of NaCl, δ” value is about 1 fold. For the same molecule, in data set [1] (setting [6]), the affinity corresponds to a Ki of 136 nM. In data set [1] (binding affinity for the δ opioid receptor, summary of Table 3), this molecule showed an inhibition constant Ki of about 100 nM. Also, in data set [1] (preliminary test, 100 mM NaCl), the “agonist vs. antagonist activity, δ” value is recorded as “antagonist”. For the same molecule, the “Receptor Affinity (relative to 100%) δ” value in data set [1] was determined as 39%. Besides, the “selectivity among the three receptor subtypes” value in data set [2] (at 20 μM, μ, δ, κ) is reported as “non-selective”. Further, in data set [2], the “Selectivity for δ receptor (δ/κ)” value is given as 0.46 and the “Selectivity for δ Receptor (δ/μ)” value turned out to be 0.54. Also, in data set [3] (setting [5]), the “increase in binding affinity in the presence of NaCl, κ” value is listed as about 1 fold. Also, in data set [3], the inhibition constant (Ki) turned out to be 1390 nM and the “Receptor Affinity (relative to 100%) κ” value is 85%. Also, the “agonist vs. antagonist activity, κ” value in data set [3] (preliminary test, 100 mM NaCl) is reported as “antagonist”. In addition, the “increase in binding affinity in the presence of NaCl, μ” value in data set [4] (setting [5]) is reported as about 1 fold. Besides, in data set [4], the Ki came to 444 nM and the “Receptor Affinity (relative to 100%) μ” value is recorded as 72%. Further, the “agonist vs. antagonist activity, μ” value in data set [4] (preliminary test, 100 mM NaCl) was “antagonist”.

For the molecule `CN(C)c1nnc(-c2ccc(C(C)(C)C)cc2)n1-c1cccc(O)c1` [Compound 5d, 1-{3-[4-(tert-butyl)phenyl]-5-N,N-dimethylamino-(1,2,4-triazol-4-yl)}-3-phenol], the Ki in data set [1] (setting [6]) was 300 nM; in data set [3], over 10000 nM; in data set [4] it was 4000 nM.

As a reminder, the melting point is the temperature of the solid-liquid transition. Usually Ki stands for the dissociation constant of the complex between target and ligand, obtained from inhibition or displacement.
